Source: patent US8445500B2, “Pesticidal compositions” (Dow AgroSciences, LLC., priority 2007, dated 2013)

Tests used:
Assay type in all cases: in vivo
[1] = tested on: Yellow Fever Mosquito Aedes aegypti; assay: Insecticidal assay 4, yellow fever mosquito larvae, 96-well plate; details: A. aegypti first instar larvae in water; 1.5 microliters of 4 micrograms per microliter in DMSO per well; assessed after 72 hours at 22° C.
Text: 4. Insecticidal Assay for Yellow Fever Mosquito Aedes aegypti:
Objective: To evaluate the insecticidal activity of compounds against A. aegypti larvae through contact and ingestion.
(§1) Test unit preparation: Empty, 96-well microtiter plates are loaded onto a robotic dispensing system prior to application.
Formulation and application: Compounds are formulated in dimethyl sulfoxide at 4-micrograms per microliter. A robotic system dispenses 1.5 microliters of each formulated experimental solution into each well of an empty, 96-well microtiter plate. Each treatment is replicated 3 times.
Infesting: Subsequent to application, recently hatched, mosquito larvae are suspended in water containing 0.4% mosquito diet (1:3 mix of brewers yeast to liver powder). A robotic system dispenses aliquots of this aqueous solution containing 5-8 first instar mosquitoes into each well of the treated plates.
Holding and assessment: After infestation, the plates are covered with a matching clear plastic lid. Infested plates are stacked and held in an incubator at 22° C. for 72 hours. At assessment, cells are examined by means of a dissecting microscope for insecticidal effects.

[2] = tested on: Root-Knot Nematode Meloidogyne incognita; assay: Insecticidal assay 5, root-knot nematode, 96-well plate with foxtail millet; details: M. incognita eggs; 5 micrograms of compound per well; soil/polymer media with foxtail millet seeds; assessed after 7 days at 27° C.
Text: 5. Insecticidal Assay for Root-Knot Nematode Meloidogyne incognita:
Objective: To evaluate the insecticidal activity of compounds against M. incognita through contact and ingestion.
as §1
Formulation and application: A robotic system dispenses 25 microliters of ethanol and 5 micrograms of compound, diluted in dimethyl sulfoxide, into each well of a 96-well flat-bottomed, microtiter plate. There are 3 replicates per treatment. The plates are held 24 hours to allow proper drying prior to further preparation and infestation.
Additional test unit preparation and infestation: After drying, 16 milligrams of media consisting of 2 parts fine soil and 1 part absorbent polymer is added to each well of the treated 96-well plates. Once the media is in place, a 200 microliter aqueous suspension of rootknot nematode eggs is added to each well forming a gelatinous substrate. Into each of these wells are distributed 10 foxtail millet Seteria italica seeds. Following this “planting” an identical plate is sealed to the top of the treated plate to allow space for the millet to grow.
Holding and assessment: Once the lids are in place, the plates are held at 27° C. and 75% relative humidity under bright indirect lights. […]

[3] = tested on: Beet Armyworm Spodoptera exigua; assay: Insecticidal assay 7, beet armyworm, diet cups; details: S. exigua second instar; 250 microliters of 400 ppm and 25 ppm solutions on diet in cups; assessed 5 days after infestation
Description: 7. Insecticidal Assay for Beet Armyworm Spodoptera exigua:
Objective: To assess the insecticidal activity of compounds against S. exigua, through contact and ingestion.
Test unit preparation: 8 milliliters of lepidopteran diet is dispensed into one ounce clear plastic portion cups. The diet is allowed to cool before storage or use.
Formulation and application: Eight milligrams of technical compound is dissolved in 20 milliliters of 2:1 acetone:tap water diluent to form a 400 ppm solution. An aliquot of this solution is also used to prepare a 25 parts per million concentration. 250 microliters of each solution is then pipetted onto the surface the diet in each cup. Each treatment is replicated 10 times.
Infestation: Once the treated cups have dried, a single second-instar beet armyworm is placed on the treated diet in each cup.
Holding and assessment: Treated and infested diet cups or are capped and then held in a chamber at 25° C. and 50% relative humidity. 14-hours light:10-hours dark. 5 days after infestation the larvae are assessed for insecticidal effects.

[4] = tested on: Beet Armyworm Spodoptera exigua; assay: Insecticidal assay 10, beet armyworm, 128 well bioassay trays; details: S. exigua second instar; 50 microliters of 1 milligram per milliliter stock or serial dilutions on diet per well; assessed 5 days after infestation
Description: 10. Insecticidal Assay for Beet Armyworm Spodoptera exigua:
Objective: To assess the insecticidal activity of compounds against S. exigua through contact and ingestion.
Test unit preparation: 128 well bioassay trays are prepared by injecting each well with approximately 1 milliliter of prepared lepidopteran diet. Trays are allowed to dry prior to use.
Compound formulation and application: A 1 milligram per milliliter, stock solution is prepared for each compound by adding 2 milliliters of acetone/water diluent (9:1) to a vial containing 2 milligrams of technical compound. From this stock solution, additional doses may be produced through serial dilution. Once the appropriate concentrations have been prepared, 50 microliters of each solution is applied to the surface of the diet in each of 8 wells. Upon completing application, the trays are allowed to dry.
Infestation: Once dry, each well is infested with a single second instar beet armyworm. The infested wells are sealed with self sticking, ventilated plastic covers.
Holding and assessment: After infestation and sealing, the trays are placed in a growth chamber at 25 C and 40% relative humidity. 5 days after infestation the larvae are assessed for insecticidal effects.

[5] = tested on: German Cockroach Blattella germanica; assay: Insecticidal assay 12, German cockroach, 96-well diet plate; details: B. germanica second instar; 2 microliters of 4-microgram/microliter in DMSO per well on diet; assessed after 6 and 13 days at 29° C.
Description: 12. Insecticidal Assay for German Cockroach Blattella germanica: Objective: Assessment of the insecticidal activity of compounds against B. germanica through contact and ingestion. Test unit preparation: A robotic system dispenses 100 microliters of freshly prepared artificial diet into each well of a 96-well microtiter plate. The plates are held overnight at 22° C. to allow proper cooling and drying prior to treatment and infestation. Compound formulation and application: Compounds are formulated in dimethyl sulfoxide at 4-microgram/microliter. A robotic system automatically dispenses 2 microliters of each compound solution into individual wells of the prepared test units. Each treatment is replicated 3 times. After application, plates are allowed to dry 5-6 hours in a fume hood. When dry, the plates are covered with a matching lid and held overnight in a sealed container prior to infestation. Infestation: One day after application, each treated well is infested with 3-5, second instar cockroaches. Holding and assessment: Once infested, the plates are covered with a clear plastic lid. The plates are stacked and held in an incubator at 29° C. After 6 and 13 days respectively, each well is examined by means of a dissecting microscope for insecticidal effects.

[6] = tested on: Western Tarnished Plant Bug Lygus hesperus; assay: Insecticidal assay 13, western tarnished plant bug, sprayed egg-infested snow pea pods; details: L. hesperus eggs and emergent nymphs; airbrush spray on egg-infested snow pea pods; assessed after 10 days
Description: 13. Insecticidal Assay for Western Tarnished Plant Bug Lygus hesperus:
Objective: Assessment of the insecticidal activity of compounds against L. hesperus through egg contact and contact/ingestion activity on emergent nymphs.
Test Unit preparation: Female lygus are allowed to oviposit on snow pea pods, these pods are then placed in plastic Petri dishes.
Formulation and application: Compounds are dissolved in acetone and further dilutes with water containing 0.025% Tween 20. The solutions are sprayed on the Petri dishes and the egg-infested snow pea pods using an airbrush.
Holding and assessment: The Petri dishes are held for 10 days under controlled conditions at which time the emerging nymphs are assessed for insecticidal effects.

Measured: insecticidal activity

N#Cc1c(NNc2c(Cl)cc(C(F)(F)F)cc2Cl)nc(C(F)(F)F)nc1C(F)(F)F [Compound 11, 4-[N′-(2,6-dichloro-4-trifluoromethyl-phenyl)-hydrazino]-2,6-bis-trifluoromethyl-pyrimidine-5-carbonitrile]
significant insecticidal activity: all assays above
